Target: Tyrosine-protein kinase SYK (Homo sapiens) (UniProt P43405)
Assay: Inhibition of human recombinant SYK by radiometric kinase assay

IC50: 720 nM
Compound: CN1CCN(c2ccc(Nc3ncc4nc(Nc5ccccc5)n(C5CCCC5)c4n3)cc2)CC1

— BindingDB's records for doi:10.1021/jm301365e (Sichuan University, 2012)
